Experimental data: patent EP3120851A1, “4-AMINO-6-(2,6-DICHLOROPHENYL)-8-METHYL-2-(PHENYLAMINO)-PYRIDO[2,3-D]PYRIMIDIN-7(8H)-ONE FOR TREATMENT OF SOLID CANCERS” (Pangaea Biotech S.L., priority 2015, dated 2017)
pIC50: −log10 of the molar value.

Experiments:
Experiment in all cases: MTT proliferation assay, single agent
Type in all cases: cell-based
A431 = conditions: Homo sapiens, A-431, SCC, 72 h, mean of several independent experiments
Description: (§1) The compound of formula (1) was tested using a Thiazolyl Blue Tetrazolium Bromide (MTT) proliferation assay in a panel of tumor cell lines of different origins.
(§2) All culture materials were obtained from Biological Industries (Kibbutz Beit Haemek, Israel) or Invitrogen (Paisley, Scotland, United Kingdom). The non-tumor cell lines HF and HACAT were provided by Vall d'Hebrón Hospital and GmbH, respectively. The PC9 naïve cell line was provided by Mayumi Ono and, the H3122, HCC78 and 11-18 by Daniel Costa. The PC9-GR1, PC9-GR2, PC9-GR3, PC9-GR4, PC9-GR5 and PC9-ER cell lines were derived in house by exposing the parental PC9 cell line to increasing concentrations of erlotinib (ER) or gefitinib (GR). The rest of the cell lines in which compound (1) was tested were purchased from ATCC (H23, H1975, H2228, A549, H460, Calu-6, H1650, SK-MES-1, EBC1, SNU1, AGS, N87, PC3, BxPC3, DLD1, HT29, SW48, SCC9,FaDu, AU565, Gingival, Prostate, SU-DHL-1 and A431). All cell lines were maintained in RPMI medium supplemented with 10% FBS, 50 µg/mL penicillin-streptomycin and 2 mM L-Glutamine. All cells were grown in a humidified atmosphere with 5% CO2 at 37°C.
(§3) Cell viability in response to single agent treatment was assessed by the Thiazolyl Blue Tetrazolium Bromide (MTT) (Sigma, St Louis, MO) assay. Cells from each cell line were seeded at 2000 to 10000 per well in 96-well plates. […] After treatment, cells were incubated with medium containing MTT (0.75 mg/mL in medium) for 1-2 h at 37°C. Culture medium with MTT was removed and formazan crystals reabsorbed in 100 µL DMSO (Sigma, St. Louis, MO). Cell viability was determined by measuring the absorbance at 492 nm, using a microplate reader (BioWhittaker, Walkersville, MD).
(§4) The IC50s shown are the mean of several independent experiments. Standard errors are also listed Table 2. SCC means squamous cell carcinoma, ADC means adenocarcinoma, GBM means glioblastoma.

H1568 = conditions: NCI-H1568, Lung ADC, CD74-NRG1, 72 h, mean of several independent experiments
Description: as §1, §2, §3, §4

H1975 = conditions: Homo sapiens, NCI-H1975, Lung ADC, EGFR ex21, 72 h, mean of several independent experiments
Description: as §1, §2, §3, §4

H322 = conditions: NCI-H322, Lung BAC, CD74-NRG1, 72 h, mean of several independent experiments
Description: as §1, §2, §3, §4

EBC-1 = conditions: Homo sapiens, SCC Lung, c-Met ampl, 72 h, mean of several independent experiments
Description: as §1, §2, §3, §4

PC9-GR2 = conditions: Lung ADC, EGFR ex19, 72 h, mean of several independent experiments
Description: as §1, §2, §3, §4

SCC9 = conditions: Homo sapiens, SCC-9, SCC Head&Neck, DDR2 wt, 72 h, mean of several independent experiments
Description: as §1, §2, §3, §4

PC9-GR3 = conditions: Lung ADC, EGFR ex19, 72 h, mean of several independent experiments
Description: as §1, §2, §3, §4

CD74-ROS1 (G2032) = conditions: Lung ADC, ROS1 translocated, 72 h, mean of several independent experiments
Description: as §1, §2, §3, §4

SW48 = conditions: Homo sapiens, Colon ADC, EGFR ex18, 72 h, mean of several independent experiments
Description: as §1, §2, §3, §4

PC9-ER = conditions: Homo sapiens, PC-9/ER, Lung ADC, EGFR ex19, 72 h, mean of several independent experiments
Description: as §1, §2, §3, §4

HCC366 = conditions: SCC Lung, DDR2 mutated, 72 h, mean of several independent experiments
Description: as §1, §2, §3, §4

Calu6 = conditions: Homo sapiens, Calu-6, Lung ADC, KRAS, 72 h, mean of several independent experiments
Description: as §1, §2, §3, §4

435S = conditions: Melanoma (melanocyte), BRAF V600E, 72 h, mean of several independent experiments
Description: as §1, §2, §3, §4

HCC78 = conditions: Homo sapiens, Lung ADC, ROS1-SLC34A2, 72 h, mean of several independent experiments
Description: as §1, §2, §3, §4

H3122 = conditions: Homo sapiens, NCI-H3122, Lung ADC, ALK-EML4 (v1), 72 h, mean of several independent experiments
Description: as §1, §2, §3, §4

H2228 = conditions: Homo sapiens, NCI-H2228, Lung ADC, ALK-EML4 (v3), 72 h, mean of several independent experiments
Description: as §1, §2, §3, §4

SK-MES-1 = conditions: Homo sapiens, SCC Lung, DDR2 wt, 72 h, mean of several independent experiments
Description: as §1, §2, §3, §4

WM793 = conditions: Homo sapiens, Melanoma, BRAF V600E, 72 h, mean of several independent experiments
Description: as §1, §2, §3, §4

H11-18 = conditions: Lung ADC, EGFR ex21, 72 h, mean of several independent experiments
Description: as §1, §2, §3, §4

L239R+T654M = conditions: SCC Lung, DDR2 mutated, 72 h, mean of several independent experiments
Description: as §1, §2, §3, §4

H2286 = conditions: Homo sapiens, NCI-H2286, SCC Lung, DDR2 mutated, 72 h, mean of several independent experiments
Description: as §1, §2, §3, §4

CD74-ROS1 (wt) = conditions: Lung ADC, ROS1 translocated, 72 h, mean of several independent experiments
Description: as §1, §2, §3, §4

H1650 = conditions: Homo sapiens, NCI-H1650, Lung ADC, EGFR ex19, 72 h, mean of several independent experiments
Description: as §1, §2, §3, §4

I638F+T654M = conditions: SCC Lung, DDR2 mutated, 72 h, mean of several independent experiments
Description: as §1, §2, §3, §4

I638F = conditions: SCC Lung, DDR2 mutated, 72 h, mean of several independent experiments
Description: as §1, §2, §3, §4

pIC50 (A431): 5.87
pIC50 (H1568): 5.61
pIC50 (H1975): 5.68
pIC50 (H322): 5.36
pIC50 (PC9-GR2): 5.67
pIC50 (PC9-GR3): 6.06
pIC50 (SW48): 6.12
pIC50 (PC9-ER): 5.93
pIC50 (HCC366): 6.08
pIC50 (Calu6): 6.14
pIC50 (HCC78): 6.04
pIC50 (H3122): 5.87
pIC50 (H2228): 5.87
pIC50 (SK-MES-1): 6.24
pIC50 (H2286): 7.30
pIC50 (H1650): 5.57
SMILES: Cn1c(=O)c(-c2c(Cl)cccc2Cl)cc2c(N)nc(Nc3ccccc3)nc21 [Compound (1), 4-amino-6-(2,6-dichlorophenyl)-8-methyl-2-(phenylamino)-pyrido[2,3-d]pyrimidin-7(8H)-one]
pIC50 (EBC-1): 5.29
pIC50 (SCC9): 5.36
pIC50 (CD74-ROS1 (G2032)): 5.70
pIC50 (435S): 6.00
pIC50 (WM793): 5.80
pIC50 (H11-18): 5.31
pIC50 (L239R+T654M): 6.22
pIC50 (CD74-ROS1 (wt)): 5.72
pIC50 (I638F+T654M): 6.11
pIC50 (I638F): 7.00
